Where two headings read alike, the source gives them in different places. Numbered stars: 1 amine (or outer) side, 2 acyl side, 3 side chain; on linkers, the order of the positions; unused ones are H or OH. Bridge positions count the residues as written; N and C are the ends. Square brackets hold non-standard residues; d marks the D form. Peptide text beside a SMILES is read from it. * marks the point of attachment. X1 = CN1C[C@H](CSCCN(CCSC[C@@H]2C[C@@H]3c4cccc5[nH]cc(c45)C[C@H]3N(C)C2)[C@H](CCCCN[*:2])C(=O)[*:1])C[C@@H]2c3cccc4[nH]cc(c34)C[C@H]21; X2 = CN1C[C@H](CSCC(=O)*)C[C@@H]2c3cccc4[nH]cc(c34)C[C@H]21; Phe(4-F) = N[C@@H](Cc1ccc(F)cc1)C(=O)O; 4Pal = N[C@@H](Cc1ccncc1)C(=O)O
Tests used:
hSSTR2 = hSSTR2 (Homo sapiens (Human), UniProt P30874); assay: Intracellular calcium mobilization assay (FLIPR Calcium 4), hSSTR2; format: cell-based; conditions: for Emax: read-out: hSSTR2 % Emax ± SEM; for improvement in EC50 over Reference Compound A: Student's t-test, one-tailed, p <0.05; for improvement in EC50 and/or % Emax over Reference Compound B: calcium mobilization;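 for all read-outs here: agonist activity read as intracellular calcium rise in cells expressing human SSTR2, loaded with a calcium-sensitive dye for 60 min at 37 °C, measured by FLIPR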
Protocol: (§1) The ability of select compounds according to the present invention to activate hSSTR2 and hDRD2 was determined by the intracellular calcium mobilization assay using FLIPR Calcium 4 assay kit (Molecular Devices).
(§2) Cells expressing hSSTR2 or hDRD2 were plated in 384-well microplates in tissue culture media and incubated for 16-24 hours at 37° C. in a humidified atmosphere with 5% CO2. Medium was replaced by loading buffer containing Hank's buffered saline, 20 mM HEPES, 2.5 mM probenecid and Calcium 4 dye, and the plates were incubated at 37° C. for 60 minutes.

hDRD2 = hDRD2 (Homo sapiens (Human), UniProt P14416); assay: cell-based; conditions: for Emax: read-out: hDRD2 % Emax ± SEM
Protocol: as §1, §2

[1] = maximal effect in percentage of the maximal effect of SRIF-14

Chain of hSSTR2 (P30874 whole entry): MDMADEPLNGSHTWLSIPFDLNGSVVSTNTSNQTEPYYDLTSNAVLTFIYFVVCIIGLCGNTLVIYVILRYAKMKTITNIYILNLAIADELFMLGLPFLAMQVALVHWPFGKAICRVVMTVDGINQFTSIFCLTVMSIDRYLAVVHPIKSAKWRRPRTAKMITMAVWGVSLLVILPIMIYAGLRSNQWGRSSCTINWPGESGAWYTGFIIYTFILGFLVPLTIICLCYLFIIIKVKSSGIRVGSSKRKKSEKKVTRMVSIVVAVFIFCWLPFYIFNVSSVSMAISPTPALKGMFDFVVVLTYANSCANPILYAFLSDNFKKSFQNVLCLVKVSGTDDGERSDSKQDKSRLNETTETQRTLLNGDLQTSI

## CC(=O)N(CCC(=O)NC(CN[C@@H]1CCCCNC(=O)[C@H](Cc2ccc(F)cc2)NC(=O)[C@H]([C@@H](C)O)NC(=O)[C@H](CCCCN)NC(=O)[C@@H](Cc2c[nH]c3ccccc23)NC(=O)[C@H](Cc2ccccc2)NC(=O)[C@H](Cc2ccccc2)NC(=O)[C@H](CCCNC(=N)N)NC1=O)Cc1ccc(O)cc1)C[C@@H]1C[C@@H]2c3cccc4[nH]cc(c34)C[C@H]2N(C)C1 (single isomer, unassigned) [Compound 27, 3-[N-acetyl-N-(D-6-methyl-8β-ergolinylmethyl)]-aminopropionyl-Tyr-psi(CH2NH)-cyclo(DLys-Arg-Phe-Phe-DTrp-Lys-Thr-4FPhe)]
hSSTR2
  EC50: 11.4 ± 2 nM
  Emax: 95.9 ± 2.4%
hDRD2
  EC50: 50.7 ± 6.8 nM

## CC(=O)N(CCCNC(CN[C@@H]1CCCCNC(=O)[C@H](Cc2ccc(F)cc2)NC(=O)[C@H]([C@@H](C)O)NC(=O)[C@H](CCCCN)NC(=O)[C@@H](Cc2c[nH]c3ccccc23)NC(=O)[C@H](Cc2ccccc2)NC(=O)[C@H](Cc2ccccc2)NC(=O)[C@H](CCCNC(=N)N)NC1=O)Cc1ccc(O)cc1)C[C@@H]1C[C@@H]2c3cccc4[nH]cc(c34)C[C@H]2N(C)C1 (single isomer, unassigned) [Compound 28A, 3-[N-acetyl-N-(D-6-methyl-8β-ergolinylmethyl)]-aminopropionyl-psi(CH2NH)-Tyr-psi(CH2NH)-cyclo(DLys-Arg-Phe-Phe-DTrp-Lys-Thr-4FPhe)]
hSSTR2
  EC50: 14.9 ± 6.3 nM
  Emax: 109 ± 20%
hDRD2
  EC50: 65.5 ± 3.6 nM

## C[C@@H](O)[C@@H]1NC(=O)[C@H](CCCCN)NC(=O)[C@@H](Cc2c[nH]c3ccccc23)NC(=O)[C@H](Cc2ccccc2)NC(=O)[C@H](Cc2ccccc2)NC(=O)[C@H](CCCNC(=N)N)NC(=O)[C@H](NCCC[C@@H]2C[C@@H]3c4cccc5[nH]cc(c45)C[C@H]3N(C)C2)CCCCNC(=O)[C@H](Cc2ccc(F)cc2)NC1=O [Compound 1, (D-6-methyl-8β-ergolinyl)-propionyl-psi(CH2NH)-cyclo(DLys-Arg-Phe-Phe-DTrp-Lys-Thr-4FPhe)]
hSSTR2
  Emax: 98.7%
hDRD2
  Emax: 102.1 ± 0.4%

## C[C@@H](O)[C@@H]1NC(=O)[C@H](CCCCN)NC(=O)[C@@H](Cc2c[nH]c3ccccc23)NC(=O)[C@H](Cc2ccccc2)NC(=O)[C@H](Cc2ccccc2)NC(=O)[C@H](CCCNC(=N)N)NC(=O)[C@H](NCCSC[C@@H]2C[C@@H]3c4cccc5[nH]cc(c45)C[C@H]3N(C)C2)CCCCNC(=O)[C@H](Cc2ccc(F)cc2)NC1=O [Compound 6, Dop1-psi(CH2NH)-cyclo(DLys-Arg-Phe-Phe-DTrp-Lys-Thr-4FPhe)]
hSSTR2
  improvement in EC50 over Reference Compound A: statistically significant improvement
  Emax: 99.1 ± 0.6%
hDRD2
  Emax: 88.3 ± 5.1%

## C[C@@H](O)[C@@H]1NC(=O)[C@H](CCCCN)NC(=O)[C@@H](Cc2c[nH]c3ccccc23)NC(=O)[C@H](Cc2ccncc2)NC(=O)[C@H](Cc2ccccc2)NC(=O)[C@H](CCCNC(=N)N)NC(=O)[C@H](NCCSC[C@@H]2C[C@@H]3c4cccc5[nH]cc(c45)C[C@H]3N(C)C2)CCCCNC(=O)[C@H](Cc2ccc(O)cc2)NC1=O [Compound 7, Dop1-psi(CH2NH)-cyclo(DLys-Arg-Phe-4Pal-DTrp-Lys-Thr-Tyr)]
hSSTR2
  improvement in EC50 over Reference Compound A: statistically significant improvement
  Emax: 96.9 ± 2.5%
hDRD2
  Emax: 102 ± 5%

## CC(=O)N(CCCN(C(C)=O)[C@@H]1CCCCNC(=O)[C@H](Cc2ccc(F)cc2)NC(=O)[C@H]([C@@H](C)O)NC(=O)[C@H](CCCCN)NC(=O)[C@@H](Cc2c[nH]c3ccccc23)NC(=O)[C@H](Cc2ccccc2)NC(=O)[C@H](Cc2ccccc2)NC(=O)[C@H](CCCNC(=N)N)NC1=O)C[C@@H]1C[C@@H]2c3cccc4[nH]cc(c34)C[C@H]2N(C)C1 [Compound 28, 3-[N-acetyl-N-(D-6-methyl-8β-ergolinylmethyl)]-aminopropionyl-psi(CH2NAc)-cyclo(DLys-Arg-Phe-Phe-DTrp-Lys-Thr-4FPhe)]
hSSTR2
  Emax: 98.7 ± 2%

## C[C@@H](O)[C@@H]1NC(=O)[C@H](CCCCN)NC(=O)[C@@H](Cc2c[nH]c3ccccc23)NC(=O)[C@H](Cc2ccncc2)NC(=O)[C@H](Cc2ccccc2)NC(=O)[C@H](CCCNC(=N)N)NC(=O)[C@H](N(CCSC[C@@H]2C[C@@H]3c4cccc5[nH]cc(c45)C[C@H]3N(C)C2)CCSC[C@@H]2C[C@@H]3c4cccc5[nH]cc(c45)C[C@H]3N(C)C2)CCCCNC(=O)[C@H](Cc2ccccc2)NC1=O [Compound 29, bis[Dop1-psi(CH2N)]-cyclo(DLys-Arg-Phe-4Pal-DTrp-Lys-Thr-Phe)] (RF[4Pal][dW]KTF; linker N-C via X1)
hSSTR2
  improvement in EC50 over Reference Compound A: statistically significant improvement
  Emax: 97 ± 4.9%

## CC(=O)N(CCCN[C@@H]1CCCCNC(=O)[C@H](Cc2ccc(F)cc2)NC(=O)[C@H]([C@@H](C)O)NC(=O)[C@H](CCCCN)NC(=O)[C@@H](Cc2c[nH]c3ccccc23)NC(=O)[C@H](Cc2ccccc2)NC(=O)[C@H](Cc2ccccc2)NC(=O)[C@H](CCCNC(=N)N)NC1=O)C[C@@H]1C[C@@H]2c3cccc4[nH]cc(c34)C[C@H]2N(C)C1 [Compound 29A, 3-[N-acetyl-(D-6-methyl-8β-ergolinylmethyl)]-aminopropionyl-psi(CH2NH)-cyclo(DLys-Arg-Phe-Phe-DTrp-Lys-Thr-4FPhe)]
hSSTR2
  Emax: 100 ± 23.2%

## C[C@@H](O)[C@@H]1NC(=O)[C@H](CCCCN)NC(=O)[C@@H](Cc2c[nH]c3ccccc23)NC(=O)[C@H](Cc2ccccc2)NC(=O)[C@H](Cc2ccccc2)NC(=O)[C@H](CCCNC(=N)N)NC(=O)[C@@H](NC[C@H](Cc2ccc(O)cc2)NC(=O)CSC[C@@H]2C[C@@H]3c4cccc5[nH]cc(c45)C[C@H]3N(C)C2)CCCCNC(=O)[C@H](Cc2ccccc2)NC1=O [Compound 31, Dop1-Tyr-psi(CH2NH)-cyclo(Lys-Arg-Phe-Phe-DTrp-Lys-Thr-Phe)]
hSSTR2
  Emax: 85.1 ± 4.7%

## C[C@@H](O)[C@@H]1NC(=O)[C@H](CCCCN)NC(=O)[C@@H](Cc2c[nH]c3ccccc23)NC(=O)[C@H](Cc2ccccc2)NC(=O)[C@H](Cc2ccccc2)NC(=O)[C@H](CCCNC(=N)N)NC(=O)[C@H](NC[C@H](Cc2ccc(O)cc2)NC(=O)CSC[C@@H]2C[C@@H]3c4cccc5[nH]cc(c45)C[C@H]3N(C)C2)CCCCNC(=O)[C@H](Cc2ccccc2)NC1=O [Compound 32, Dop1-Tyr-psi(CH2NH)-cyclo(DLys-Arg-Phe-Phe-DTrp-Lys-Thr-Phe)]
hSSTR2
  improvement in EC50 and/or % Emax over Reference Compound B: statistically significant improvement
  Emax: 87.5 ± 4.3%

## C[C@@H](O)[C@@H]1NC(=O)[C@H](CCCCN)NC(=O)[C@@H](Cc2c[nH]c3ccccc23)NC(=O)[C@H](Cc2ccccc2)NC(=O)[C@H](Cc2ccccc2)NC(=O)[C@H](CCCNC(=N)N)NC(=O)[C@H](NC[C@H](Cc2ccc(O)cc2)NC(=O)CSC[C@@H]2C[C@@H]3c4cccc5[nH]cc(c45)C[C@H]3N(C)C2)CCCCNC(=O)[C@H](Cc2ccc(O)cc2)NC1=O [Compound 33, Dop1-Tyr-psi(CH2NH)-cyclo(DLys-Arg-Phe-Phe-DTrp-Lys-Thr-Tyr)]
hSSTR2
  improvement in EC50 and/or % Emax over Reference Compound B: statistically significant improvement
  Emax: 95.7 ± 5.1%

## C[C@@H](O)[C@@H]1NC(=O)[C@H](CCCCN)NC(=O)[C@@H](Cc2c[nH]c3ccccc23)NC(=O)[C@H](Cc2ccccc2)NC(=O)[C@H](Cc2ccccc2)NC(=O)[C@H](CCCNC(=N)N)NC(=O)[C@H](NC(=O)CSC[C@@H]2C[C@@H]3c4cccc5[nH]cc(c45)C[C@H]3N(C)C2)CCCCNC(=O)[C@H](Cc2ccc(F)cc2)NC1=O [Compound 34, Dop1-cyclo(DLys-Arg-Phe-Phe-DTrp-Lys-Thr-4FPhe)] (X2-[dK]RFF[dW]KT[Phe(4-F)]; lactam 1-C)
hSSTR2
  Emax: 95.1 ± 7.1%

## C[C@@H](O)[C@@H]1NC(=O)[C@H](CCCCN)NC(=O)[C@@H](Cc2c[nH]c3ccccc23)NC(=O)[C@H](Cc2ccncc2)NC(=O)[C@H](Cc2ccccc2)NC(=O)[C@H](CCCNC(=N)N)NC(=O)[C@H](N(CCSC[C@@H]2C[C@@H]3c4cccc5[nH]cc(c45)C[C@H]3N(C)C2)CCSC[C@@H]2C[C@@H]3c4cccc5[nH]cc(c45)C[C@H]3N(C)C2)CCCCNC(=O)[C@H](Cc2ccc(O)cc2)NC1=O [Compound 35, bis[Dop1-psi(CH2N)]-cyclo(DLys-Arg-Phe-4Pal-DTrp-Lys-Thr-Tyr)] (RF[4Pal][dW]KTY; linker N-C via X1)
hSSTR2; [1]
  Emax: 91.2 ± 11%

## C[C@@H](O)[C@@H]1NC(=O)[C@H](CCCCN)NC(=O)[C@@H](Cc2c[nH]c3ccccc23)NC(=O)[C@H](Cc2ccccc2)NC(=O)[C@H](Cc2ccccc2)NC(=O)[C@H](CCCNC(=N)N)NC(=O)[C@H](N(CCSC[C@@H]2C[C@@H]3c4cccc5[nH]cc(c45)C[C@H]3N(C)C2)CCSC[C@@H]2C[C@@H]3c4cccc5[nH]cc(c45)C[C@H]3N(C)C2)CCCCNC(=O)[C@H](Cc2ccc(F)cc2)NC1=O [Compound 39, bis[Dop1-psi(CH2N)]-cyclo(DLys-Arg-Phe-Phe-DTrp-Lys-Thr-4FPhe)] (RFF[dW]KT[Phe(4-F)]; linker N-C via X1)
hSSTR2
  Emax: 87.1 ± 4.7%

## C[C@@H](O)[C@@H]1NC(=O)[C@H](CCCCN)NC(=O)[C@@H](Cc2c[nH]c3ccccc23)NC(=O)[C@H](Cc2ccccc2)NC(=O)[C@H](Cc2ccccc2)NC(=O)[C@H](CCCNC(=N)N)NC(=O)[C@H](NCCCS(=O)(=O)C[C@@H]2C[C@@H]3c4cccc5[nH]cc(c45)C[C@H]3N(C)C2)CCCCNC(=O)[C@H](Cc2ccc(F)cc2)NC1=O [Compound 48, (D-6-methyl-8β-ergolinylmethyl)-sulfonylpropyl-cyclo(DLys-Arg-Phe-Phe-DTrp-Lys-Thr-4FPhe)]
hSSTR2
  Emax: 95.5 ± 11.9%

## Dop1-cyclo(DLys-Arg-Phe-Phe-DTrp-Lys-Thr-Phe) [Compound 44]
hSSTR2; [1]
  hSSTR2 % Emax ± SEM: 97.1 ± 5.9%
